Experimental data reported in the supplement of paper PMC10307832.

Key:
Assay in all cases: relative viability (nuclei count vs DMSO), 5 days (fraction); higher = more cells survive
Daporinad + OSI-027 = compound: O=C(/C=C/c1cccnc1)NCCCCC1CCN(C(=O)c2ccccc2)CC1 [Daporinad] + COc1cccc2cc(-c3nc([C@H]4CC[C@H](C(=O)O)CC4)n4ncnc(N)c34)[nH]c12 [OSI-027] (partner 0.5 µM)
Procedure, shortened: (§1)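 For relative viability, nuclei counts in treated wells were divided by those in vehicle wells. Lung cancer cell lines had been pin-tool dosed in 1536-well plates the day after seeding and cultured for 5 days, then fixed and stained in one step (final 0.05% Triton X-100, 1% formaldehyde, 1 ug/ml Hoechst) and imaged at 4×. Doses were one drug alone or a fixed anchor-drug dose plus five library-drug doses (not always all listed) in √10 steps, and values are duplicate-plate medians.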

Daporinad + Lapatinib = compound: O=C(/C=C/c1cccnc1)NCCCCC1CCN(C(=O)c2ccccc2)CC1 [Daporinad] + CS(=O)(=O)CCNCc1ccc(-c2ccc3ncnc(Nc4ccc(OCc5cccc(F)c5)c(Cl)c4)c3c2)o1 [Lapatinib] (partner 2 µM)
Procedure, shortened: as §1

Daporinad + Pemetrexed = compound: O=C(/C=C/c1cccnc1)NCCCCC1CCN(C(=O)c2ccccc2)CC1 [Daporinad] + Nc1nc2[nH]cc(CCc3ccc(C(=O)N[C@@H](CCC(=O)O)C(=O)O)cc3)c2c(=O)[nH]1 [Pemetrexed] (partner 0.2 µM)
Procedure, shortened: as §1

R406 + Foretinib = compound: COc1cc(Nc2ncc(F)c(Nc3ccc4c(n3)NC(=O)C(C)(C)O4)n2)cc(OC)c1OC [R406] + COc1cc2c(Oc3ccc(NC(=O)C4(C(=O)Nc5ccc(F)cc5)CC4)cc3F)ccnc2cc1OCCCN1CCOCC1 [Foretinib] (partner 0.25 µM)
Procedure, shortened: as §1

Cell Line | relative viability (Daporinad + OSI-027; first compound 0.0005 µM) | relative viability (Daporinad + OSI-027; first compound 0.001581 µM) | relative viability (Daporinad + OSI-027; first compound 0.005 µM) | relative viability (Daporinad + OSI-027; first compound 0.01581 µM) | relative viability (Daporinad + Lapatinib; first compound 0.0005 µM) | relative viability (Daporinad + Lapatinib; first compound 0.001581 µM) | relative viability (Daporinad + Lapatinib; first compound 0.005 µM) | relative viability (Daporinad + Lapatinib; first compound 0.01581 µM) | relative viability (Daporinad + Pemetrexed; first compound 0.0005 µM) | relative viability (Daporinad + Pemetrexed; first compound 0.001581 µM) | relative viability (Daporinad + Pemetrexed; first compound 0.005 µM) | relative viability (Daporinad + Pemetrexed; first compound 0.01581 µM) | relative viability (R406 + Foretinib; first compound 0.08 µM) | relative viability (R406 + Foretinib; first compound 0.253 µM) | relative viability (R406 + Foretinib; first compound 0.8 µM) | relative viability (R406 + Foretinib; first compound 2.53 µM) | relative viability (R406 + Foretinib; first compound 8 µM)
201T | 0.745 | 0.612 | 0.794 | 0.795 | 0.957 | 1.05 | 1.02 | 1.04 | 0.333 | 0.315 | 0.313 | 0.34 | 1.13 | 1.32 | 1.21 | 0.829 | 0.708
A549 |  |  |  |  | 0.973 | 1.05 | 0.938 | 0.607 |  |  |  |  | 0.961 | 1 | 0.94 | 0.959 | 0.396
A-427 | 0.435 | 0.471 | 0.503 | 0.31 | 1.05 | 1.12 | 0.962 | 0.863 | 0.981 | 1.02 | 0.937 | 0.662 | 1.09 | 1.35 | 1.24 | 0.983 | 0.814
ABC-1 | 0.485 | 0.472 | 0.704 | 0.517 | 1.14 | 0.952 | 1.24 | 0.86 |  |  |  |  | 1.08 | 1.03 | 1.03 | 1.15 | 0.781
BEN | 0.276 | 0.301 | 0.299 | 0.287 | 0.646 | 0.688 | 0.858 | 1.11 | 0.726 | 0.792 | 0.953 | 0.935 | 0.884 | 0.609 | 0.691 | 0.879 | 0.578
CAL-12T | 0.65 | 0.541 | 0.719 | 0.33 | 0.599 |  | 0.722 | 0.413 | 1.09 | 1.21 | 0.502 | 0.314 | 1.03 | 1.23 | 1.22 | 1.09 | 0.812
COR-L23 | 0.737 | 0.772 | 0.814 | 0.255 | 0.969 | 0.993 | 0.92 | 0.403 | 0.194 | 0.198 | 0.208 | 0.196 | 0.925 | 1.18 | 1.12 | 0.931 | 0.665
COR-L 105 | 0.671 | 0.748 | 0.883 | 0.694 | 0.371 | 0.371 | 0.385 | 0.442 | 1.21 | 1 | 1.18 | 1.02 | 0.898 | 1.4 | 1.34 | 1.1 | 0.504
Calu-6 |  |  |  |  | 1.06 | 0.959 | 0.863 | 0.413 |  |  |  |  | 0.842 | 0.927 | 0.924 | 0.687 | 0.553
ChaGo-K-1 | 0.673 | 0.597 | 0.636 | 0.471 |  |  |  |  | 0.255 | 0.248 | 0.248 | 0.239 | 0.926 | 1.07 | 1.09 | 0.771 | 0.531
EBC-1 |  |  |  |  | 0.238 | 0.216 | 0.206 | 0.17 |  |  |  |  | 0.102 | 0.107 | 0.0997 | 0.118 | 0.122
